Reference: US20070128731A1, “Methods for preparing crystalline rapamycin and for measuring crystallinity of rapamycin compounds using differential scanning calorimetry” (Wyeth, priority 2005, published 2007)

Test: Storage stability of crystalline rapamycin followed by DSC
Format: physicochemical
Procedure: In one example, the crystallinity is maintained over a period of about 2 months. In another example, the crystallinity is maintained over a period of about 4 months. In a further example, the crystallinity is maintained up to about 60% relative humidity.
In this example, samples containing rapamycin (Table 3) were analyzed by DSC and optical microscopy. The morphology and approximate particle size were determined using optical microscopy. A standard DSC sample ramp rate of 10° C./min and a hermetically sealed aluminum pan were utilized.
Sample 2 contained crystalline rapamycin and about 2 to about 3% of oxidative/hydrolysis degradation impurities and was prepared using the process of Example 3. A portion of the batch was maintained at 25° C. and 60% relative humidity for 2 months.
Sample 3 contains crystalline rapamycin and about 2 to about 3% of oxidative/hydrolysis degradation impurities and was prepared using the process of example 3. A portion of the batch was subjected to 25° C. and 60% relative humidity for 4 months.

Compound: CO[C@H]1C[C@@H]2CC[C@@H](C)[C@@](O)(O2)C(=O)C(=O)N2CCCC[C@H]2C(=O)O[C@H]([C@H](C)C[C@@H]2CC[C@@H](O)[C@H](OC)C2)CC(=O)[C@H](C)/C=C(\C)[C@@H](O)[C@@H](OC)C(=O)[C@H](C)C[C@H](C)/C=C/C=C/C=C/1C [rapamycin]
- effect of low levels of impurities on DSC melting temperature over time (about 2 to about 3% oxidative/hydrolysis degradation impurities, 25° C. and 60% relative humidity, 2 and 4 months): do not affect
- crystallinity on storage (period up to 4 months at up to about 60% relative humidity): substantially maintained
- change in the DSC melting endotherm on storage (stored for up to 4 months at up to about 60% relative humidity): minimal change
